The nature of test [1]: Concentration for doublingAPTT clotting times of human plasma. In kind it is functional, cell-free.
Test [2] is described as follows: Anticoagulant activity of compound in respect to APTT in human poor platelet plasma (PPP) at 705.25 nM concentration was measured by the Amelung coagulometer KC4A apparatus. In kind it is functional.
Test [3] is described as follows: Anticoagulant activity of compound in respect to APTT in human poor platelet plasma (PPP) at 528.94 nM concentration was measured by the Amelung coagulometer KC4A apparatus. The class given is functional.
Test [4] is described as follows: Anticoagulant activity of compound in respect to APTT in human poor platelet plasma (PPP) at 881.56 nM concentration was measured by the Amelung coagulometer KC4A apparatus. In kind it is functional.
The nature of test [5]: Anticoagulant activity of compound in respect to APTT in human poor platelet plasma (PPP) at 771 nM concentration was measured by the Amelung coagulometer KC4A apparatus. In kind it is functional.
Test [6] in a line: Anticoagulant activity of compound in respect to APTT in human poor platelet plasma (PPP) at 1156.6 nM concentration was measured by the Amelung coagulometer KC4A apparatus. The class given is functional.
A short description of test [7]: Anticoagulant activity of compound in respect to APTT in human poor platelet plasma (PPP) at 211 nM concentration was measured by the Amelung coagulometer KC4A apparatus. The class given is functional.
The nature of test [8]: Anticoagulant activity of compound in respect to APTT in human poor platelet plasma (PPP) at 1077.7 nM concentration was measured by the Amelung coagulometer KC4A apparatus. In kind it is functional.
Test [9] is described as follows: Anticoagulant activity of compound in respect to APTT in human poor platelet plasma (PPP) at 646.61 nM concentration was measured by the Amelung coagulometer KC4A apparatus. The class given is functional.
The nature of test [10]: Anticoagulant activity of compound in respect to APTT in human poor platelet plasma (PPP) at 290 nM concentration was measured by the Amelung coagulometer KC4A apparatus. The class given is functional.
Test [11] in a line: Anticoagulant activity of compound in respect to APTT in human poor platelet plasma (PPP) at 1192 nM concentration was measured by the Amelung coagulometer KC4A apparatus. In kind it is functional.
Test [12] in a line: Anticoagulant activity of compound in respect to APTT in human poor platelet plasma (PPP) at 1117.95 nM concentration was measured by the Amelung coagulometer KC4A apparatus. The class given is functional.
Test [13] is described as follows: Anticoagulant activity of compound in respect to APTT in human poor platelet plasma (PPP) at 1043.42 nM concentration was measured by the Amelung coagulometer KC4A apparatus. In kind it is functional.
The nature of test [14]: Anticoagulant activity of compound in respect to APTT in human poor platelet plasma (PPP) at 894 nM concentration was measured by the Amelung coagulometer KC4A apparatus. The class given is functional.
A short description of test [15]: Anticoagulant activity of compound in respect to APTT in human poor platelet plasma (PPP) at 2235.9 nM concentration was measured by the Amelung coagulometer KC4A apparatus. In kind it is functional.
Test [16] in a line: Anticoagulant activity of compound in respect to APTT in human poor platelet plasma (PPP) at 2992.43 nM concentration was measured by the Amelung coagulometer KC4A apparatus. The class given is functional.
Test [17] can be described thus: Anticoagulant activity of compound in respect to APTT in human poor platelet plasma (PPP) at 1813.59 nM concentration was measured by the Amelung coagulometer KC4A apparatus. In kind it is functional.
Test [18] can be described thus: Anticoagulant activity of compound in respect to APTT in human poor platelet plasma (PPP) at 906.8 nM concentration was measured by the Amelung coagulometer KC4A apparatus. In kind it is functional.
Test [19] is described as follows: Anticoagulant activity of compound in respect to APTT in human poor platelet plasma (PPP) at 2266.99 nM concentration was measured by the Amelung coagulometer KC4A apparatus. In kind it is functional.
The nature of test [20]: Anticoagulant activity of compound in respect to APTT in human poor platelet plasma (PPP) at 2720.39 nM concentration was measured by the Amelung coagulometer KC4A apparatus. In kind it is functional.
The nature of test [21]: Anticoagulant activity of compound in respect to APTT in human poor platelet plasma (PPP) at 2901.75 nM concentration was measured by the Amelung coagulometer KC4A apparatus. In kind it is functional.
Test [22] is described as follows: Anticoagulant activity of compound in respect to APTT in human poor platelet plasma (PPP) at 1785.28 nM concentration was measured by the Amelung coagulometer KC4A apparatus. In kind it is functional.
Test [23] is described as follows: Anticoagulant activity of compound in respect to APTT in human poor platelet plasma (PPP) at 1562.12 nM concentration was measured by the Amelung coagulometer KC4A apparatus. In kind it is functional.
The nature of test [24]: Anticoagulant activity of compound in respect to APTT in human poor platelet plasma (PPP) at 1338.96 nM concentration was measured by the Amelung coagulometer KC4A apparatus. The class given is functional.
The species entered for another test is Homo sapiens. The experiment in a line: Anticoagulant activity of compound in respect to APTT in human poor platelet plasma (PPP) at a concentration 41.89(nM) of was measured by the Amelung coagulometer KC4A apparatus. In kind it is functional, cell-free.
Test [25] is described as follows: Anticoagulant activity of compound in respect to APTT in human poor platelet plasma (PPP) at a concentration 272.29(nM) of was measured by the Amelung coagulometer KC4A apparatus. In kind it is functional.
The nature of test [26]: Anticoagulant activity of compound in respect to APTT in human poor platelet plasma (PPP) at a concentration 802.24(nM) of was measured by the Amelung coagulometer KC4A apparatus. In kind it is functional.
Test [27] is described as follows: Anticoagulant activity of compound in respect to APTT in human poor platelet plasma (PPP) at 418.91 nM concentration was measured by the Amelung coagulometer KC4A apparatus. The class given is functional.
The nature of test [28]: Anticoagulant activity of compound in respect to APTT in human poor platelet plasma (PPP) at a concentration 523.64(nM) of was measured by the Amelung coagulometer KC4A apparatus. In kind it is functional.

Square brackets hold non-standard residues; d marks the D form. Peptide text beside a SMILES is read from it. Orn = NCCC[C@H](N)C(=O)O

On to `CC(C)C[C@H](NC(=O)[C@H](CCCCN)NC(=O)[C@H](CCCN=C(N)N)NC(=O)[C@H](CCCCN)NC(=O)[C@@H]1CCCN1C(=O)[C@@H](N)CCCN)C(=O)N[C@H](C(=O)N1CCC[C@H]1C(N)=O)C(C)C` (H-[Orn]PKRKLVP-NH2) [listing 1 of 2 here], for which it took 705 nM to reach half-maximal inhibition in test [1] (IC50).
With `CC(C)C[C@H](NC(=O)[C@H](CCCCN)NC(=O)[C@H](CCCN=C(N)N)NC(=O)[C@H](CCCCN)NC(=O)[C@@H]1CCCN1C(=O)[C@@H](N)CCCN)C(=O)N[C@H](C(=O)N1CCC[C@H]1C(N)=O)C(C)C` (H-[Orn]PKRKLVP-NH2) [listing 2 of 2 here], the figures for the APTT in test [2], in test [3] and in test [4] were 29.3 s, 0.5 s and 53.3 s, respectively.
For the molecule `CC(C)C[C@H](NC(=O)[C@H](CCCCN)NC(=O)[C@H](CCCN=C(N)N)NC(=O)[C@H](CCCCN)NC(=O)[C@@H]1CCCN1C(=O)[C@@H](N)CCCN)C(=O)N[C@H](C(=O)N1CCC[C@H]1C(=O)O)C(C)C` (H-[Orn]PKRKLVP-OH) [listing 1 of 2 here], the IC50 in test [1] came out at 1160 nM.
As to `CC(C)C[C@H](NC(=O)[C@H](CCCCN)NC(=O)[C@H](CCCN=C(N)N)NC(=O)[C@H](CCCCN)NC(=O)[C@@H]1CCCN1C(=O)[C@@H](N)CCCN)C(=O)N[C@H](C(=O)N1CCC[C@H]1C(=O)O)C(C)C` (H-[Orn]PKRKLVP-OH) [listing 2 of 2 here], the APTT in [5] was 22.2 s; in test [6] it was 28.5 s.
In turn, H-KPKRKLVP-NH2 yielded an IC50 in [1] of 647 nM. Besides, the APTT in [7] was 8.9 s; in test [8], 57.9 s; in test [9], 28.9 s.
For H-KPKRKLVP-OH, inhibition in test [1] was half-maximal at 1120 nM (IC50). Moreover, the APTT in test [10] was found to be 6.7 s; in [11], 50.9 s; in test [12] it was 30 s; in [13] it was 24.1 s; in [14], 21.6 s; in test [15], 122.8 s.
As for H-PKRKLVP-NH2 [listing 1 of 2 here], in [1], 2900 nM corresponded to half-maximal inhibition (IC50).
For H-PKRKLVP-NH2 [listing 2 of 2 here], the APTT in test [16] was found to be 32.4 s; in test [17], 18.6 s; in [18] it was 8.8 s; in test [19], 18.8 s; in test [20] it was 25.5 s; in test [21], 29.8 s.
H-PKRKLVP-OH [listing 1 of 2 here] registered an IC50 in test [1] of 1560 nM.
Consider H-PKRKLVP-OH [listing 2 of 2 here], for which the results for the APTT in test [22], in [23] and in [24] were 47.1 s, 31 s and 22.1 s, respectively.
In test [1], H-RPKLVP-OH came in with an IC50 of 802 nM. The APTT entry in the test filed under Homo sapiens is “No activity”; in test [25], 3.8 s; in [26] it was 62.4 s; in test [27] it was 5.5 s; in test [28] it was 15.6 s.

What is called IC50 is the concentration that gives 50% inhibition. Low values mean higher potency, high ones lower potency.

Source of the values: ChEMBL document CHEMBL1141046, “Design, synthesis and structure-activity relationship of a series of fragment analogues of antistasin (ATS) and ghilantens (GLS)” (Bioorg Med Chem Lett, 2005).
